Where a name gives a salt, the structure may show the parent alone.
How the values were obtained:
[1] = system: IL-17 production of mouse spleen cells stimulated by rm-IL-23; assay: Production of IL-17 induced when mouse spleen cells were stimulated by recombinant mouse interleukin-23 (rm-IL-23); format: cell-based; conditions: inhibition of IL-17 production, DBA/1J mouse spleen cells, rm-IL-23 1 nmol/L, ELISA
Experimental: Effect on Production of IL-17 Induced when Mouse Spleen Cells were Stimulated by Recombinant Mouse Interleukin-23 (rm-IL-23)
An RPMI1640 (Sigma-Aldrich) was used as a medium, to which penicillin G potassium (50 units/mL; Gibco), streptomycin (50 μg/mL; Gibco) and 2-mercaptoethanol (50 μmol/l; Sigma-Aldrich) were added, and then 10% of fetal calf serum (FCS; Cell Culture Technology) inactivated at 56° C. for 30 minutes was added and used in the Test. The test compound was dissolved in dimethylsulfoxide and diluted with 10% FCS-containing RPMI1640 medium to a desired concentration and used in the test. The spleens were aseptically taken out from 6-7 week-old male DBA/1J mice (Charles River Japan, Inc.) and a single cell suspension of spleen cells was prepared and hemolyzed by hypotonic treatment with a mixture of 0.83% aqueous solution of ammonium chloride and Tris-HCl buffer of pH 7.65 (9:1). A cell suspension prepared by 10% FCS-containing RPMI1640 medium was added to flat-bottomed 96 well microtestplate at 2×10^5 cells/well. Test compounds and rm-IL-23 (R&D systems) were diluted with a medium to 1 to 1,000 nmol/L, and 1 nmol/L of the final concentration respectively, which were added and cultured at 37° C., 5% carbon dioxide and 95% air for 72 hours. After completion of the culture, culture supernatant was sampled and an amount of IL-17 production was determined by ELISA method. After sampling the supernatant, WST-8 (Seikagaku Corporation) was added at 10 μl/well and cultured at 37° C., 5% carbon dioxide and 95% air for 4 hours. Then, absorbance (O.D.: Optical Density) at 450 nm was measured by a microplate reader and the value was adopted as an index of cell survivability. An inhibition rate (%) was calculated according to the following formula on the basis of an average of an amount of IL-17 production and a O.D. values of the well containing a test compound of each concentration.
Based on the dose-response curve obtained by plotting the inhibition rate in the longitudinal axis and concentration in the horizontal axis, the concentration of the compound which inhibits the level to 50% of the value of the control group (IC50; nmol/L) was determined by linear regression analysis. The results was shown in the next Table 1

hERG = hERG (Homo sapiens, UniProt Q12809); assay: Effects on hERG current (whole-cell clamping); conditions: human, HEK 293 cells that express hERG
Experimental: Dimethylsulfoxide was used as a vehicle and hERG-expressed HEK 293 cells (Cytomyx) were used as test cells. Test cells were once cultured and subdivided and were stored under frozen condition in liquid nitrogen. In the study, thawed and subcultured cells having less than 30 of the passage number were used. Test cells were cultured in a carbon dioxide incubator BNP-110M (Tabai Espec Corp.) at 37±1° C., and 5.0±0.5% of carbon dioxide concentration. The component of culture medium was MEM (Minimum Essential Medium) supplemented with 10 vol % fetal bovine serum (non-activated), 1 mmol/L sodium pyruvate, 0.1 mmol/L non-essential amino acid, 100 U/mL penicillin with 100 μg/mL streptomycin. To select gene-expressing cells, 400 μg/mL G418 Sulphate (Invitrogen) was added to the culture medium. In the dishes for the measurement, the medium which not contain G418 Sulphate (Invitrogen) was used.
As to seeding of cells for measurement, subcultured cells which became confluent were treated with 0.25% trypsin-solution containing 1 mmol/L EDTA (Invitrogen) to remove from the plate, and seeded on sterilized collagen-coated cover glass (Iwaki, AGC Techno Glass Co., LTD). The medium was exchanged appropriately, including the day of measurement.
A perfusion method was applied to the experiment. Test cells were perfused (perfusion speed: approximately 4 mL/min) with an external solution containing specified concentrations of test compounds (component of external solution: 137 mmol/L of sodium chloride, 4 mmol/L of potassium chloride, 10 mmol/L of HEPES, 1.8 mmol/L of calcium chloride, 1 mmol/L of magnesium chloride and 10 mmol/L of glucose; adjusted to pH 7.4±0.1 with sodium hydroxide aqueous solution). […] When effects were observed, the perfusion was continued until the maximum response was observed. […] The data were obtained from one experiment or more and the cells which were incubated in a carbon dioxide incubator after seeding and attached to cover slips were used for the measurement.
A whole-cell clamping method was applied to the measurement. Test cells were perfused (perfusion speed: approximately 4 mL/min) with an external solution (component of external solution: 137 mmol/L of sodium chloride, 4 mmol/L of potassium chloride, 10 mmol/L of HEPES, 1.8 mmol/L of calcium chloride, 1 mmol/L of magnesium chloride and 10 mmol/L of glucose; adjusted to pH 7.4±0.1 with sodium hydroxide aqueous solution). A glass electrode with a resistance of 2 to 6 MΩ, filled with an internal solution (component: 130 mmol/L of potassium chloride, 1 mmol/L of magnesium chloride, 5 mmol/L of EGTA, 10 mmol/L of HEPES and 5 mmol/L of ATP adjusted to pH 7.2±0.1 with sodium hydroxide aqueous solution) was used. After rupturing cell membrane with glass electrode, the cell membrane voltage was held at −80 mV via a patch clamp software (pCLAMP9 [Axon CNS], Molecular Devices) using patch clamp amplifier (EPC8, HEKA). […] Test cells and the cell-attached cover glass were changed every treatment. Temperature of the fluid in a perfusion fluid tank was 24±2° C.
The obtained current was recorded on a computer via a patch clamp amplifier using patch clamp software. An evaluation item was a tail peak current.
A tail peak current was analyzed using analyzing software (Clampfit 9 [Axon CNS], MolecularDevices). Each 2 pulses of before and after perfusion of test compound for each concentration was analyzed, and a peak values of the tail current on the pulses were determined. The inhibition ratio was determined according to the following equation:

[2] = pH 7.4, hERG inhibition rate (%) (1 μM), 1 μM, tail peak current, hERG-expressed HEK 293 cells

Sequence of hERG (Q12809 whole entry): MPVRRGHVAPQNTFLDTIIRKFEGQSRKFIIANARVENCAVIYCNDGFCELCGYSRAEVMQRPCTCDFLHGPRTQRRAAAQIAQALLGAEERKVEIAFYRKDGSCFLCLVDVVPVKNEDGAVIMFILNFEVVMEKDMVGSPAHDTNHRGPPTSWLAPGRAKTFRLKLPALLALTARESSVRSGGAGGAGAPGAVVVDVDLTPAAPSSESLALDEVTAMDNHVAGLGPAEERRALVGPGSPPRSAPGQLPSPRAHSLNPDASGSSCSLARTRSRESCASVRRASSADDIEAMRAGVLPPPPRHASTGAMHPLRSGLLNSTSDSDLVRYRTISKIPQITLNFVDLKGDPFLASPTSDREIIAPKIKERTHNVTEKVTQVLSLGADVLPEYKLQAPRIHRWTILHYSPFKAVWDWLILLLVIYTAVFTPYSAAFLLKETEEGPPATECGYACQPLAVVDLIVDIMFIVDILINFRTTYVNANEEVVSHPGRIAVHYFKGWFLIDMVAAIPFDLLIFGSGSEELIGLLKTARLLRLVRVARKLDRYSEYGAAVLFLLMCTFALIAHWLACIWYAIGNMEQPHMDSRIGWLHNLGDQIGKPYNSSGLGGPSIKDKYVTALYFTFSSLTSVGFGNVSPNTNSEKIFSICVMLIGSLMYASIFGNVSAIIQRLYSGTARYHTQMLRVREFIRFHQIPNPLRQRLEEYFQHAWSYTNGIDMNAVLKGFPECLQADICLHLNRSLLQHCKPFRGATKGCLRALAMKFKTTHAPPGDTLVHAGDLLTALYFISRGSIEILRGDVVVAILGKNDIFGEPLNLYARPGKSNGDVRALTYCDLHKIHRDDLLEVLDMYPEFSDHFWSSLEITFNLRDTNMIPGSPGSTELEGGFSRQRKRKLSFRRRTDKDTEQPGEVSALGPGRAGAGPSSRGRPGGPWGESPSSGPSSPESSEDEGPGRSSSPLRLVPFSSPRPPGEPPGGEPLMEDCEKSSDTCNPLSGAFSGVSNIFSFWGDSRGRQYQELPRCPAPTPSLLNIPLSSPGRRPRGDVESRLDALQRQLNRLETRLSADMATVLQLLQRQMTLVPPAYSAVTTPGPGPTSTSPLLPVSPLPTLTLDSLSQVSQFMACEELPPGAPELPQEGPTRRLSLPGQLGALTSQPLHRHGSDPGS

SMILES	IC50 ([1]; Mus musculus, 72 h) [nM]	inhibition at 1 µM (hERG; [2]) [%]	IC50 ([1]; 72 hours) [nM]	inhibition at 1 µM (hERG; pH 7.4) [%]
Cc1c(C(=O)Nc2ccc(C3CCC(=O)CC3)nc2)cnn1-c1ccc(F)cc1F [Example E21]	180	8.3	–	–
Cc1ccc(-n2ncc(C(=O)Nc3ccc(C4CCC(=O)CC4)nc3)c2C)cc1 [Example E22]	328	2.7	–	–
Cc1cc(NC(=O)c2cnn(-c3ccc(C(F)(F)F)cc3)c2C)cnc1C1=CCOCC1 [Example E30, N-[6-(3,6-Dihydro-2H-pyran-4-yl)-5-methylpyridin-3-yl]-5-methyl-1-[4-(trifluoromethyl)-phenyl]-1H-pyrazole-4-carboxamide]	149	10.7	–	–
Cc1c(C(=O)Nc2ccc(C3(C#N)CCC(=O)CC3)nc2)cnn1-c1ccc(F)c(F)c1 [Example F10]	–	–	278	8
Cc1c(C(=O)Nc2ccc(C3CCC(=O)CC3)nc2)cnn1-c1ccc(C(C)(C)C)cc1 [Example F26]	321	8.1	–	–
Cc1c(C(=O)Nc2ccc([C@]3(C#N)CC[C@@H](O)CC3)nc2)cnn1-c1ccc(F)c(F)c1 [Example G12]	260	6.5	–	–
Cc1cc(NC(=O)c2cnn(-c3ccc(C4CC4)cn3)c2C)cnc1[C@H]1CC[C@H](O)CC1 [Example J12]	149	10.8	–	–
Cc1c(C(=O)Nc2ccc([C@]3(C#N)CC[C@@H](O)CC3)nc2)cnn1-c1ccc(C2CC2)cn1 [Example J13]	242	10.7	–	–
Cc1c(C(=O)Nc2ccc([C@]3(C#N)CC[C@@H](O)CC3)nc2)cnn1-c1ncc(C(F)(F)F)cc1Cl [Example J15]	438	8.2	–	–
Cc1c(C(=O)Nc2ccc([C@]3(C#N)CC[C@@H](O)CC3)nc2)cnn1-c1ncc(C(F)(F)F)cc1F [Example J16]	305	13.5	–	–
Cc1c(C(=O)Nc2ccc([C@]3(C#N)CC[C@@H](O)CC3)nc2)cnn1-c1ncc(C2CC2)cc1F [Example J17]	275	2.4	–	–
Cc1c(C(=O)Nc2ccc(C3(C#N)CCC(O)CC3)nc2)cnn1-c1ccc(C(F)(F)F)cn1 (centres unmarked) [Example K6, N-[6-(r-1-Cyano-c-4-hydroxycyclohexyl)pyridin-3-yl]-5-methyl-1-[5-(trifluoromethyl)pyridin-2-yl]-1H-pyrazole-4-carboxamide]	148	40	–	–
Cc1ccc(-n2ncc(C(=O)Nc3ccc([C@]4(C#N)CC[C@@H](OCCO)CC4)nc3)c2C)cc1 [Example K19, N-{6-[r-1-cyano-c-4-(2-hydroxyethoxy)cyclohexyl]pyridin-3-yl}-5-methyl-1-(4-methylphenyl)-1H-pyrazole-4-carboxamide]	148	2.4	–	–
CNC1CC=C(c2ncc(NC(=O)c3cnn(-c4ccc(C(F)(F)F)cn4)c3C)cc2C)CC1 (centres unmarked) [Example K26, 5-Methyl-N-[5-methyl-6-(4-methylaminocyclohex-1-en-1-yl)pyridin-3-yl]-1-[5-(trifluoromethyl)pyridin-2-yl]-1H-pyrazole-4-carboxamide]	376	14.3	–	–
CC(=O)N(C)C1CC=C(c2ncc(NC(=O)c3cnn(-c4ccc(C(F)(F)F)cn4)c3C)cc2C)CC1 (centres unmarked) [Example K27, N-{6-[4-(N-Acetyl-N-methylamino)cyclohex-1-en-1-yl]-5-methylpyridin-3-yl}-5-methyl-1-[5-(trifluoromethyl)pyridin-2-yl]-1H-pyrazole-4-carboxamide]	242	9.7	–	–

Continued by falling IC50 ([1]; Mus musculus, 72 h), values first:

IC50 ([1]; Mus musculus, 72 h) [nM]	SMILES	inhibition at 1 µM (hERG; [2]) [%]	IC50 ([1]; 72 hours) [nM]	inhibition at 1 µM (hERG; pH 7.4) [%]
147	COc1cc(C(F)(F)F)cnc1-n1ncc(C(=O)Nc2cnc([C@H]3CC[C@H](O)CC3)c(C)c2)c1C [Example G30]	3.2	–	–
146	Cc1cc(NC(=O)c2cnn(-c3ccc(C(F)(F)F)cn3)c2C)cnc1C1CCC(=O)CC1 [Example F32]	17.9	–	–
145	Cc1c(C(=O)Nc2ccc(C3CCC(O)CC3)nc2)cnn1-c1ccc(Cl)cc1 (centres unmarked) [Example G9]	0.8	–	–
137	Cc1c(C(=O)Nc2ccc([C@]3(C#N)CC[C@@H](O)CC3)nc2)cnn1-c1ccc(C(C)C)cc1 [Example J18]	17.8	–	–
133	Cc1cc(NC(=O)c2cnn(-c3ncc(C(F)(F)F)cc3F)c2C)cnc1[C@H]1CC[C@H](O)CC1 [Example G29, trans-1-[3-Fluoro-5-(trifluoromethyl)pyridin-2-yl]-N-[6-(1-hydroxycyclohexan-4-yl)-5-methylpyridin-3-yl]-5-methyl-1H-pyrazole-4-carboxamide]	6.7	–	–
132	Cc1c(C(=O)Nc2ccc([C@]3(C#N)CC[C@@H](O)CC3)nc2)cnn1-c1ccc(C2CC2)cc1 [Example J19]	18.5	–	–
127	Cc1c(C(=O)Nc2ccc(C3(C(=O)O)CCCCC3)nc2)cnn1-c1ccc(Cl)cc1 [Example K4, 1-[5-({[1-(4-Chlorophenyl)-5-methyl-1H-pyrazol-4-yl]carbonyl}amino)pyridin-2-yl]-cyclohexanecarboxylic acid]	17.2	–	–
118	Cc1c(C(=O)Nc2ccc(C3CCC(O)CC3)nc2)cnn1-c1ccc(C(F)(F)F)cc1 (centres unmarked) [Example G10]	5.1	–	–
107	Cc1c(C(=O)Nc2ccc(C3(C#N)CCC(=O)CC3)nc2)cnn1-c1ccc(F)cc1 [Example F6]	6.8	–	–
105	Cc1cc(NC(=O)c2cnn(-c3ncc(C(F)(F)F)cc3Cl)c2C)cnc1[C@H]1CC[C@H](O)CC1 [Example G32, trans-1-[3-Chloro-5-(trifluoromethyl)pyridin-2-yl]-N-[6-(1-hydroxycyclohexan-4-yl)-5-methylpyridin-3-yl]-5-methyl-1H-pyrazole-4-carboxamide]	7.9	–	–
90	CCc1ccc(-n2ncc(C(=O)Nc3ccc([C@]4(C#N)CC[C@@H](O)CC4)nc3)c2C)cc1 [Example J20]	18.1	–	–
86.6	Cc1cc(NC(=O)c2cnn(-c3ccc(C(F)(F)F)cc3)c2C)cnc1C1=CCC(O)CC1 (centres unmarked) [Example G5, N-[6-(4-Hydroxycyclohex-1-en-1-yl)-5-methylpyridin-3-yl]-5-methyl-1-[4-(trifluoromethyl)-phenyl]-1H-pyrazole-4-carboxamide]	11.7	–	–
84.6	Cc1c(C(=O)Nc2ccc([C@]3(C#N)CC[C@@H](O)CC3)nc2)cnn1-c1ccc(OC(F)(F)F)cc1 [Example G11]	12.2	–	–
67.5	Cc1cc(NC(=O)c2cnn(-c3ccc(C(F)(F)F)cn3)c2C)cnc1[C@H]1CC[C@H](O)CC1 [Example J7, trans-N-[6-(4-Hydroxycyclohexyl)-5-methylpyridin-3-yl]-5-methyl-1-[5-(trifluoromethyl)-pyridin-2-yl]-1H-pyrazole-4-carboxamide]	7.9	–	–
61.6	Cc1c(C(=O)Nc2ccc(C3(C#N)CCC(=O)CC3)nc2)cnn1-c1ccc(Cl)c(Cl)c1 [Example F8]	15.4	–	–
56.4	Cc1c(C(=O)Nc2ccc([C@]3(C#N)CC[C@@H](O)CC3)nc2)cnn1-c1ccc(Cl)c(Cl)c1 [Example G8]	1.9	–	–
53.4	Cc1c(C(=O)Nc2ccc(C3(C#N)CCC(=O)CC3)nc2)cnn1-c1ccc(C(F)(F)F)cn1 [Example F2, N-[6-(1-Cyano-4-oxocyclohexyl)pyridin-3-yl]-5-methyl-1-[5-(trifluoromethyl)pyridin-2-yl]-1H-pyrazole-4-carboxamide hydrochloride]	22.4	–	–
53	Cc1c(C(=O)Nc2ccc([C@H]3CC[C@H](O)CC3)nc2)cnn1-c1ccc(OCCOC(C)(C)C)cc1 [Example J8]	11.3	–	–
48	Cc1c(C(=O)Nc2ccc([C@H]3CC[C@H](O)CC3)nc2)cnn1-c1ccc(C(C)(C)C)cc1 [Example G4, trans-1-(4-tert-Butylphenyl)-N-[6-(4-hydroxycyclohexyl)pyridin-3-yl]-5-methyl-1H-pyrazole-4-carboxamide]	5.2	–	–

Reference: patent publication US9150555B2, “Amide derivative and use thereof” (Mitsubishi Tanabe Pharma Corporation, priority 2010, dated 2015)
